For data set [1], the system named is D835Y-Ba/F3. Particulars: Mus musculus, BaF3, 48 h, read-out: Inhibition of Flt-3 dependent Proliferation (ED50) D835-mutant.
Method: (§1) Inhibition of Proliferation in Flt-3 Dependent Ba/F3 Cells:
(§2) The compound's potential to penetrate cell membranes and exert antiproliferative effects is determined in Ba/F3 cells dependent on mutated [ITD or D835Y; Gilliland and Griffin, Blood, Vol. 100, No. 5, 153242 (2002)] Flt-3 receptor kinases.
(§3) A modified protocol of the YO-PRO-1 assay in a 96-well format is based on the use of the wild-type IL-3-dependent hematopoietic cell line Ba/F3 (DSMZ, Braunschweig, Germany) and the mutant sub-lines ITD-Ba/F3 or D835Y-Ba/F3 [Weisberg et al., Cancer Cell 1 (5):433-43 (2000)] expressing constitutively activating Flt-3 kinases.
(§4) ITD-FLT3- or D835Y-FLT3-Ba/F3 cells are diluted in fresh medium to a final concentration of 3×10^5 cells per ml and 50 μl aliquots seeded into 96-well plates (1.5×10^4 cells per well). Subsequently, 50 μl 2× compound solutions were added and cells incubated for 48 h. The anti-proliferative and apoptotic activity of a compound is initially tested in triplicates at 10 μM, 1 μM and 0.1 μM concentration on both cell lines. Cells treated with DMSO alone (added to a final concentration of 0.1%) always serves as a control. In addition, a plate blank value is routinely determined in a well containing only 100 μl of medium and no cells.
(§5) To further profile a compound an ED50 determination is done starting at 10 μM or 3 μM of the compound of interest. From those concentrations, stepwise nine dilutions are prepared reaching the final concentrations of 2 μM and 0.5 μM, respectively.
(§6) Activity of inhibitors is assessed by the YO-PRO-1 assay as previously described in [Idziorek et al., J. Immunol. […] Briefly, after the treatment period of 48 h, a 25 μl aliquot of a solution containing 100 mM sodium citrate, pH 4.0, 134 mM sodium chloride and 12.5 μM YO-PRO-1 dye (YO-PRO-1 iodide, #Y3603, Molecular Probes) is directly added to the 100 μl medium in the wells of the 96-well plate. That results in a final dye concentration of 2.5 μM, the plate is then incubated for 10 min at ambient temperature in the dark. The uptake of the YO-PRO-1 dye into cells is assessed by a first measurement using a Cytofluor II 96-well plate reader (PerSeptive Biosystems) with the following settings: Excitation (nm) 485120 and Emission (nm) 530/25, Gain 75. After this first reading, 25 μl of lysis buffer consisting of 20 mM sodium citrate, pH 4.0, 26.8 mM sodium chloride, 0.4% NP40, 20 mM EDTA and 20 mM is added to each well. Cell lysis is completed within 60 min at room temperature and total amount of YO-PRO-1 bound to DNA is determined by a second measurement using the Cytofluor II 96-well reader with the identical setting as described above.
Data set [2] concerns the target T1, RET (Homo sapiens, UniProt P07949).
T1 construct: expresses the amino acid region 658-1072 (Swiss prot No. Q9BTB0); made in house; host or cells: Sf9 insect cells (baculovirus, vector pFB-GSTX3)
T1 sequence (P07949 658-1072 isoform P07949-2): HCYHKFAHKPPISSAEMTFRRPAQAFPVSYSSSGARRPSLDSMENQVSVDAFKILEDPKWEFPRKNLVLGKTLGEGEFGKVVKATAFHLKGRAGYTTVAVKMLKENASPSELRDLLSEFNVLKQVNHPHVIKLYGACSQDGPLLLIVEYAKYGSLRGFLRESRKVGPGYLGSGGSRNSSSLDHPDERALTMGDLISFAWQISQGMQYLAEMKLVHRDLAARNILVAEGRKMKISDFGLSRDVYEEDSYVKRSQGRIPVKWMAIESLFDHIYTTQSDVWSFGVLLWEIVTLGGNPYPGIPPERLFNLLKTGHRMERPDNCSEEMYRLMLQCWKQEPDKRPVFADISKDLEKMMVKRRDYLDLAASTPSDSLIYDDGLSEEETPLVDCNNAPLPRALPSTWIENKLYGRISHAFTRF
As to the kind of experiment: RET kinase inhibition (33P incorporation into poly(Glu,Tyr), GST-wtRET or GST-RET-Men2B). The format is biochemical. The protocol:
RET kinase inhibition is determined as follows:
The coding sequence for the cytoplasmic domain of wtRET is amplified by PCR from a cDNA library using specific primers. RET-Men2B is generated through site-directed mutagenesis resulting in the M918T mutation. The amplified DNA fragments and the pFB-GSTX3 vector are made compatible for ligation by digestion with SalI and KpnI. Ligation of these DNA fragments results in the baculovirus donor plasmids […] and pFB-GX3-RET-Men2B, respectively.
Production of virus: The baculovirus donor plasmids containing the kinase domains are transfected into the DH10Bac cell line (GIBCO) and the transfected cells are plated on selective agar plates. Colonies without insertion of the fusion sequence into the viral genome (carried by the bacteria) are blue. Single, white colonies are picked and viral DNA (bacmid) is isolated from the bacteria by standard plasmid purification procedures. Sf9 cells or Sf21 cells (American Type Culture Collection) are then transfected in 25 cm^2 flasks with the viral DNA using Cellfectin reagent.
Protein expression in Sf9 cells: Virus-containing media is collected from the transfected cell culture and used for infection to increase its titer. Virus-containing media obtained after two rounds of infection is used for large-scale protein expression. For large-scale protein expression 100 cm^2 round tissue culture plates are seeded with 5×10^7 cells/plate and infected with 1 mL of virus-containing media (approximately 5 MOIs). After 3 days, the cells are scraped off the plate and centrifuged at 500 rpm for 5 minutes. Cell pellets from 10-20, 100 cm^2 plates are re-suspended in 50 mL of ice-cold lysis buffer (25 mM Tris-HCl, pH 7.5, 2 mM EDTA, 1% NP-40, 1 mM DTT, 1 mM PMSF). The cells are stirred on ice for 15 minutes and then centrifuged at 5,000 rpms for 20 minutes.
Purification of GST-tagged proteins: The centrifuged cell lysate is loaded onto a 2 mL glutathione-sepharose column (Pharmacia) and washed 3× with 10 mL of 25 mM Tris-HCl, pH 7.5, 2 mM EDTA, 1 mM DTT, 200 mM NaCl. The GST-tagged proteins are then eluted by 10 applications (1 mL each) of 25 mM Tris-HCl, pH 7.5, 10 mM reduced-glutathione, 100 mM NaCl, 1 mM DTT, 10% glycerol and stored at −70° C.
Measure of enzyme activity: Tyrosine protein kinase assays with either purified GST-wtRET or GST-RET-Men2B protein are carried out in a final volume of 30 μL containing 15 ng of either GST-RET or GST-RET-Men2B protein, 20 mM Tris-HCl, pH 7.5, 1 mM MnCl2, 10 mM MgCl2, 1 mM DTT, 3 μg/mL poly(Glu, Tyr) 4:1, 1% DMSO, 2.0 μM ATP (γ-[^33P]-ATP 0.1 μCi). The activity is assayed in the presence or absence of inhibitors, by measuring the incorporation of ^33P from [γ^33P] ATP into poly(Glu, Tyr) 4:1. […] Subsequently, 40 μL of the reaction mixture are transferred onto Immobilon-PVDF membrane (Millipore) previously soaked for 5 minutes with methanol, rinsed with water, then soaked for 5 minutes with 0.5% H3PO4 and mounted on vacuum manifold with disconnected vacuum source. After spotting all samples, vacuum is connected and each well rinsed with 200 μL 0.5% H3PO4. Membranes are removed and washed 4× on a shaker with 1.0% H3PO4, once with ethanol. Membranes are counted after drying at ambient temperature, mounting in Packard TopCount 96-well frame, and addition of 10 μl/well of Microscint™ (Packard). […] One unit of protein kinase activity is defined as 1 nmole of ^33P transferred from [γ^33P] ATP to the substrate protein/minute/mg of protein at 37° C.

The subject of data set [3] is ITD-Ba/F3. To be noted: Mus musculus, BaF3, 48 h, read-out: Inhibition of Flt-3 dependent Proliferation (ED50) ITD-mutant.
Method: as §1, §2, §3, §4, §5, §6

In the case of `CC(C)N1CCN(Cc2ccc(NC(=O)Nc3ccc(Oc4ccnc(N)n4)cc3)cc2C(F)(F)F)CC1` [Example 45, N-[4-(2-Amino-pyrimidin-4-yloxy)-phenyl]-N′-[4-(4-isopropylpiperazin-1-ylmethyl)-3-trifluoromethyl-phenyl]-urea], the EC50 in data set [1] was 0.5 nM; in data set [3] it was less than 0.2 nM. In addition, the half-inhibitory concentration (IC50) in data set [2] came out at 400 nM.
In the case of `CNc1nccc(Oc2ccc(NC(=O)Nc3ccc(CN4CCN(C(C)C)CC4)c(C(F)(F)F)c3)cc2)n1` [Example 46, N-[4-(2-Methylamino-pyrimidin-4-yloxy)-phenyl]-N′-[4-(4-isopropylpiperazin-1-ylmethyl)-3-trifluoromethyl-phenyl]-urea], the EC50 in data set [1] was 3.9 nM; in data set [3], less than 0.2 nM.
`CNc1nccc(Oc2ccc(NC(=O)Nc3ccc(CN4CCN(C(C)(C)C)CC4)c(C(F)(F)F)c3)cc2)n1` [Example 49, N-[4-(2-Methylamino-pyrimidin-4-yloxy)-phenyl]-N′-[4-(4-tert-butylpiperazinyl-methyl)-3-trifluoromethyl-phenyl]-urea] had a melting point of 257 to 258 °C. The EC50 in data set [1] came out at 11.7 nM. Further, in data set [3], the EC50 was found to be 0.1 nM.
For the molecule `CCN1CCN(Cc2ccc(NC(=O)Nc3ccc(Oc4ccnc(NC)n4)cc3)cc2C(F)(F)F)CC1` [Example 53c, 1-[4-(4-Ethyl-piperazin-1-ylmethyl)-3-trifluoromethyl-phenyl]-3-[4-(2-methylamino-pyrimidin-4-yloxy)-phenyl]-urea], the values for the EC50 in data set [1] and in data set [3] were 3.3 nM and 0.1 nM, respectively. This molecule also gave an IC50 in data set [2] of 350 nM.

The term IC50 denotes the point on the concentration scale where inhibition reaches its midpoint. High values mean a need for much substance, low ones inhibition by little substance. For orientation: melting point means the temperature, or range, at which the solid turns liquid.

(Values after patent publication US20080312192A1, “Diaryl Urea Derivatives in the Treatment of Protein Kinase Dependent Diseases” (priority 2003, published 2008).)
